pIC50: −log10 of the molar value. Strand notation (5' to 3'): a small letter for the sugar, then the base; units joined by * are phosphorothioate-linked, units joined directly phosphodiester-linked; [ ] holds rarer units or linkages, { } end groups; capitals alone tell only the bases. k = constrained ethyl (cEt); [5mC] = 5-methylcytosine; d = 2'-deoxy (DNA)
Assays:
[1] = tested on: Yap1 mRNA; experiment: Antisense inhibition of human Yap1 in A-431 cells by cEt gapmers, single dose (Example 2, RTS4814); assay type: cell-based; conditions: 3-10-3 cEt gapmers targeting SEQ ID NO.: 1, and 2
How it was run: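 Single-dose knockdown screen of 3-10-3 cEt phosphorothioate gapmers at 2,000 nM added by free uptake to A-431 cells. After roughly 48 h, RNA was isolated and Yap1 transcript measured by RT-qPCR, with results given as % UTC.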

[2] = tested on: Yap1 mRNA; experiment: Dose-dependent inhibition of human Yap1 in A-431 cells (Example 8, 10,000 cells per well, RTS4814); assay type: cell-based; conditions: free uptake, approximately 48 hours, RTS4814; for Yap1 mRNA, % UTC: A-431 cells, 10,000 cells per well; for pIC50: A-431 cells, linear regression on log/linear plot
How it was run: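 Yap1 mRNA, normalized to RIBOGREEN total RNA and expressed as % untreated control, was read with RTS4814 about 48 h after free-uptake oligonucleotide treatment of A-431 cells at 10,000 cells/well. IC50 derived by linear regression of log/linear data.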

[3] = Yap1 mRNA as percent of untreated control, A-431 cells, Table 31
[4] = Table 33, Yap1 mRNA, percent of untreated control
[5] = Table 32, Yap1 mRNA, percent of untreated control
[6] = Yap1 mRNA as percent of untreated control, A-431 cells, Table 30

Row | Substance | YAP1 (% UTC) [1, 3] | Yap1 mRNA, % UTC ([2]; 31.3 nM) | Yap1 mRNA, % UTC ([2]; 125.0 nM) | Yap1 mRNA, % UTC ([2]; 500.0 nM) | Yap1 mRNA, % UTC ([2]; 2000.00 nM) | pIC50 [2] | YAP1 (% UTC) [1, 4] | YAP1 (% UTC) [1, 5] | YAP1 (% UTC) [1, 6]
1 | 1076369 (antisense kT*kA*kT*dT*d[5mC]*dG*dG*dT*dA*dT*dT*dT*dT*k[5mC]*kT*kA) [compound 1076369] | 2 % UTC | 60 % UTC | 20 % UTC | 6 % UTC | 3 % UTC | > 7.70 |  |  | 
2 | 1074417 (kT*k[5mC]*kT*dT*dT*dA*dG*dA*dG*d[5mC]*d[5mC]*dA*dA*k[5mC]*kT*kG; antisense) [compound 1074417] | 2 % UTC | 68 % UTC | 26 % UTC | 7 % UTC | 3 % UTC | 7.00 |  |  | 
3 | 1074675 (antisense kA*kA*kA*dT*dT*dA*dT*dA*dG*dG*d[5mC]*dA*d[5mC]*kT*k[5mC]*k[5mC]) [compound 1074675] |  | 47 % UTC | 18 % UTC | 6 % UTC | 3 % UTC | > 7.70 | 6 % UTC |  | 
4 | 1074578 (DNA kG*k[5mC]*kT*dT*dA*dT*dT*dT*d[5mC]*dT*dG*dT*d[5mC]*kA*kT*kG) [compound 1074578] |  | 66 % UTC | 30 % UTC | 18 % UTC | 11 % UTC | 7.00 |  | 8 % UTC | 
5 | 1075155 (kT*k[5mC]*kA*dT*dT*dA*dT*dA*dA*dT*dG*dG*dG*kA*kG*kG; antisense) [compound 1075155] |  | 51 % UTC | 15 % UTC | 6 % UTC | 4 % UTC | > 7.70 | 5 % UTC |  | 
6 | 1074609 (DNA k[5mC]*kT*kA*dG*dT*dT*dA*d[5mC]*dA*dT*d[5mC]*dA*dT*k[5mC]*kT*k[5mC]) [compound 1074609] | 8 % UTC | 65 % UTC | 29 % UTC | 15 % UTC | 11 % UTC | 7.00 |  |  | 
7 | 1074610 (DNA kT*k[5mC]*kT*dA*dG*dT*dT*dA*d[5mC]*dA*dT*d[5mC]*dA*kT*k[5mC]*kT) [compound 1074610] |  | 57 % UTC | 20 % UTC | 10 % UTC | 7 % UTC | > 7.70 |  | 5 % UTC | 
8 | 1075824 (kG*kT*kA*dT*dT*dA*dG*dA*dG*dG*dT*dT*d[5mC]*k[5mC]*kA*kG; antisense) [compound 1075824] |  | 33 % UTC | 10 % UTC | 5 % UTC | 3 % UTC | > 7.70 |  |  | 3 % UTC
9 | 1076464 (k[5mC]*kA*kT*dA*dT*dA*d[5mC]*dA*dA*dT*dT*d[5mC]*dT*kG*k[5mC]*k[5mC]; antisense) [compound 1076464] |  | 36 % UTC | 10 % UTC | 3 % UTC | 2 % UTC | > 7.70 |  |  | 2 % UTC
10 | 1075249 (kA*kT*kT*dA*d[5mC]*dG*dA*dT*dT*dA*dG*dA*dT*k[5mC]*kA*kG; antisense) [compound 1075249] | 5 % UTC | 77 % UTC | 37 % UTC | 16 % UTC | 8 % UTC | 7.00 |  |  | 
11 | 1076017 (k[5mC]*kT*kA*dA*dT*dA*dG*dG*dA*dT*dG*dG*dA*kT*kT*k[5mC]; antisense) [compound 1076017] | 5 % UTC | 59 % UTC | 25 % UTC | 9 % UTC | 5 % UTC | 7.52 |  |  | 
12 | 1074736 (kT*k[5mC]*kA*dG*dT*dA*d[5mC]*dA*dG*dA*dG*dG*dG*k[5mC]*kA*kT; antisense) [compound 1074736] |  | 34 % UTC | 12 % UTC | 7 % UTC | 7 % UTC | > 7.70 |  |  | 4 % UTC

— patent US11214803B2, “Modulators of YAP1 expression” (Ionis Pharmaceuticals, Inc., priority 2019, dated 2022)
